pIC50: −log10 of the molar value.

Drawing on patent US8481750B2 (Boehringer Ingelheim International GmbH, priority 2009, dated 2013), this text covers IC50 for 39 compounds.

LFA-1 binding to ICAM-1, sequence (P20701 26-1170): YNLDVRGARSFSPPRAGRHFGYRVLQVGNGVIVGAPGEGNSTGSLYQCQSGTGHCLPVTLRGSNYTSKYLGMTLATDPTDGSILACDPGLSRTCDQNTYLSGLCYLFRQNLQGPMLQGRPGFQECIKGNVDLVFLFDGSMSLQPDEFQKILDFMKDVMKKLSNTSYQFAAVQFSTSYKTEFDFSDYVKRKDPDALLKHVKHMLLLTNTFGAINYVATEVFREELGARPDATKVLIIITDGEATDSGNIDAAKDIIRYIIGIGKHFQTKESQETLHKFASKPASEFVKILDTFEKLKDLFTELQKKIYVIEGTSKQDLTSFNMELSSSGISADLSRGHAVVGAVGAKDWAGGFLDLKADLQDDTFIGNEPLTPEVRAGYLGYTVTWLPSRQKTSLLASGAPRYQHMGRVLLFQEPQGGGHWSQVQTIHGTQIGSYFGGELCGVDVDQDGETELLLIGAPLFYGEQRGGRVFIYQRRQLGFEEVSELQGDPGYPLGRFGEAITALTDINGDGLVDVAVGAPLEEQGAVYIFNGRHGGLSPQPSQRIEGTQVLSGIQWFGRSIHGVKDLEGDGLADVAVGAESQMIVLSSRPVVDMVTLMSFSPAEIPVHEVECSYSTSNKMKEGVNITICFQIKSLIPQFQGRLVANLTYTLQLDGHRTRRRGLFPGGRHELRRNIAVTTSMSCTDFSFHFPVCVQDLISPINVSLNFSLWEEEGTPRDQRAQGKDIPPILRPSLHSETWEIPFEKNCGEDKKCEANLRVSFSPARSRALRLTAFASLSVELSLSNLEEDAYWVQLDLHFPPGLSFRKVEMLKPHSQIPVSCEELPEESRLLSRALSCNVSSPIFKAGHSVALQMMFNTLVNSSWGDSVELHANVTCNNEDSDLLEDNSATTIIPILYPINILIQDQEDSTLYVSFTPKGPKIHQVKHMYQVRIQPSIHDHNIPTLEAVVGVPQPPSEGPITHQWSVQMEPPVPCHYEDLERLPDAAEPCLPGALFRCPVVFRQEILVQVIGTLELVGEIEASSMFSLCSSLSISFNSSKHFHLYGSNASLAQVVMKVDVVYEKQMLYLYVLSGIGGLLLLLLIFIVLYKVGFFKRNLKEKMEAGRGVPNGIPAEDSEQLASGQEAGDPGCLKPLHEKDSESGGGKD
LFA-1 binding to ICAM-1, sequence (P05107 23-769): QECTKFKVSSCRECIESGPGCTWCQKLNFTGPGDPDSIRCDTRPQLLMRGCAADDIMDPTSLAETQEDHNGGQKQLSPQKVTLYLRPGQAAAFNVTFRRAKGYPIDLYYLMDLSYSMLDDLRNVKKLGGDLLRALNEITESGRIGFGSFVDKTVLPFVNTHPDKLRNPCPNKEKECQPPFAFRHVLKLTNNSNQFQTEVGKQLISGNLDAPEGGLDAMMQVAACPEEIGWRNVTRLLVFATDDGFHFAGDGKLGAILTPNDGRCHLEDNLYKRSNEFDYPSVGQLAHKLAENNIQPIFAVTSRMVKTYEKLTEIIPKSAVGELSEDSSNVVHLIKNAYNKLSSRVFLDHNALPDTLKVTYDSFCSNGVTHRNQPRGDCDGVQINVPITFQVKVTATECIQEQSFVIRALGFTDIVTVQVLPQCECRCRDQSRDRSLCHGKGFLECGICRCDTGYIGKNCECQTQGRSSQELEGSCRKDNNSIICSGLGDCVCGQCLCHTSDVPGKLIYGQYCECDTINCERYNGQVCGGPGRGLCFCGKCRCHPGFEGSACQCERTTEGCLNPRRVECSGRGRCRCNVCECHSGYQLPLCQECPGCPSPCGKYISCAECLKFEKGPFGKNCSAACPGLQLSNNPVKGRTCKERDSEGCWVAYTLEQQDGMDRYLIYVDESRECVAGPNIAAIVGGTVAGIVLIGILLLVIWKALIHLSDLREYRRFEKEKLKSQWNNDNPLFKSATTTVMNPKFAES

The test concerns the target LFA-1 binding to ICAM-1 (Homo sapiens, UniProt P05107+P20701). Description: Inhibition of LFA-1 binding to ICAM-1 (LFA-1/Biotin-sICAM-1 AlphaScreen molecular assay). Conditions: highest compound concentration 1 μM in 1% DMSO, 37° C., 90 minutes. From the text: Assay to Determine Inhibition of LFA-1 Binding to ICAM-1
This assay protocol is designed to study the direct antagonism, by a test compound, of the interaction of ICAM-1 with the Leukointegrin CD18/CD11a (LFA-1).
The LFA-1/Biotin-sICAM-1 molecular assay measures the ability of test compounds to inhibit binding of LFA-1 to Biotinylated-sICAM using AlphaScreen technology (Ref: Wilson, J, Rossi, C P, Carboni, S, Fremaux, C, Perrin, D, Soto, C, Kosco-Vilbois, M, and Scheer, A: A Homogeneous 384-Well High-Throughput Binding Assay for a TNF Receptor Using Alphascreen Technology. J Biomol Screen 2003; 8:522-532) that uses TS2/4(anti-LFA-1)-custom conjugated AlphaLisa acceptor beads and streptavidin-coated donor beads from PerkinElmer. The assay was performed in white OptiPlates-384 in a volume of 60 μL using assay buffer (Dulbecco's PBS containing calcium and magnesium, 2 mM MgCl2, 0.1 mM PMSF, 0.1% BSA, pH 7.1). To each well, Biotin-sICAM was added followed by purified LFA-1 (in buffer of 50 mM triethylamine, 150 mM NaCl, 1% beta octylglucoside, 2 mM MgCl2 neutralized to pH with 1M Tris-HCl, pH 7.5). For compound testing, compound was added in 5 uL to the above in 25 uL. LFA-1 and Biotin-sICAM-1 were used at concentrations that would yield a signal to background ratio of 8-10. The highest concentration of compound was 1 μM in 1% DMSO. Positive controls were wells without compound containing LFA-1, while blanks were wells without both compound and LFA-1. Plates were mixed and incubated at 37° C. for 90 minutes. This was followed by addition of 15 μL/well TS2/4-congugated acceptor beads diluted in PBS containing 0.1% BSA for a final concentration of 10 μg/mL. The plates were mixed and incubated in the dark for 30 minutes at room temperature followed by addition of 15 μL/well streptavidin-coated donor beads diluted in PBS containing 0.1% BSA at a final concentration of 15 μg/mL. The plates were mixed and incubated in the dark for 60 minutes at room temperature and then read on an EnVision Multilabel Reader using AlphaScreen 384-well OptiPlate protocol.
By pIC50 is commonly meant the IC50 on a negative log10 scale, so that one unit is a factor of ten. A lower pIC50 goes with a high IC50. As for `C[C@@]1(Cc2ccc(C#N)cc2)C(=O)N(c2cc(Cl)cc(Cl)c2)c2ncc(C(=O)NC3(C(=O)NC4(c5ccc(C(=O)N6CCOCC6)cn5)CC4)CC3)n21` [compound 42], the negative logarithm of the IC50 (pIC50) was 9.46.

`C[C@@]1(Cc2ccc(C#N)cc2)C(=O)N(c2cc(Cl)cc(Cl)c2)c2ncc(C(=O)NC3(C(=O)NC4(c5cc(C(=O)N6CCCC(C(N)=O)C6)ccn5)CC4)CC3)n21` (stereo partly drawn) [compound 43] had a pIC50 of 9.13.

In turn, `C[C@@]1(Cc2ccc(C#N)cc2)C(=O)N(c2cc(Cl)cc(Cl)c2)c2ncc(C(=O)NC3(C(=O)NC4(c5cc(C(=O)N6CCCCC6CO)ccn5)CC4)CC3)n21` (stereo partly drawn) [compound 44] had a negative-log IC50 (pIC50) of 9.06.

`CC(=O)N(C)C1CCN(C(=O)c2cccc(C3(NC(=O)C4(NC(=O)c5cnc6n5[C@](C)(Cc5ccc(C#N)cc5)C(=O)N6c5cc(Cl)cc(Cl)c5)CC4)CC3)n2)C1` (stereo partly drawn) [compound 45]: the pIC50 was 8.35.

In turn, `CC(NC(=O)c1ccc(C2(NC(=O)C3(NC(=O)c4cnc5n4[C@](C)(Cc4ccc(C#N)cc4)C(=O)N5c4cc(Cl)cc(Cl)c4)CC3)CC2)nc1)c1ccncc1` (stereo partly drawn) [compound 46] gave a negative-log IC50 (pIC50) of 9.11.

`CC(NC(=O)c1cccc(C2(NC(=O)C3(NC(=O)c4cnc5n4[C@](C)(Cc4ccc(C#N)cc4)C(=O)N5c4cc(Cl)cc(Cl)c4)CC3)CC2)n1)c1cccnc1` (stereo partly drawn) [compound 47] had a pIC50 of 8.41.

Compound `C[C@@]1(Cc2ccc(C#N)cc2)C(=O)N(c2cc(Cl)cc(Cl)c2)c2ncc(C(=O)NC3(C(=O)NC4(c5cccc(C(=O)N6CC[C@@H](O)C6)n5)CC4)CC3)n21` [compound 48] gave a negative-log IC50 (pIC50) of 8.62.

`C[C@H](CO)NC(=O)c1ccnc(C2(NC(=O)C3(NC(=O)c4cnc5n4[C@](C)(Cc4ccc(C#N)cc4)C(=O)N5c4cc(Cl)cc(Cl)c4)CC3)CC2)c1` [compound 49] gave a negative logarithm of the IC50 (pIC50) of 9.25.

With `C[C@@]1(Cc2ccc(C#N)cc2)C(=O)N(c2cc(Cl)cc(Cl)c2)c2ncc(C(=O)NC3(C(=O)NC4(c5ccc(C(=O)NCc6ccncc6)cn5)CC4)CC3)n21` [compound 50], the negative logarithm of the IC50 (pIC50) was 9.01.

For `C[C@@]1(Cc2ccc(C#N)cc2)C(=O)N(c2cc(Cl)cc(Cl)c2)c2ncc(C(=O)NC3(C(=O)NC4(c5cccc(C(=O)N6CC(O)C6)n5)CC4)CC3)n21` [compound 51], the negative-log IC50 (pIC50) was 9.24.

Compound `C[C@@H](NC(=O)c1ccnc(C2(NC(=O)C3(NC(=O)c4cnc5n4[C@](C)(Cc4ccc(C#N)cc4)C(=O)N5c4cc(Cl)cc(Cl)c4)CC3)CC2)c1)c1ccccc1` [compound 53] showed a negative logarithm of the IC50 (pIC50) of 8.62.

Compound `CC(=O)NC1CCN(C(=O)c2ccnc(C3(NC(=O)C4(NC(=O)c5cnc6n5[C@](C)(Cc5ccc(C#N)cc5)C(=O)N6c5cc(Cl)cc(Cl)c5)CC4)CC3)c2)C1` (stereo partly drawn) [compound 54] gave a pIC50 of 8.92.

`C[C@@]1(Cc2ccc(C#N)cc2)C(=O)N(c2cc(Cl)cc(Cl)c2)c2ncc(C(=O)NC3(C(=O)NC4(c5ccc(C(=O)N6CCNCC6)cn5)CC4)CC3)n21` [compound 56] gave a pIC50 of 9.22.

Compound `C[C@@]1(Cc2ccc(C#N)cc2)C(=O)N(c2cc(Cl)cc(Cl)c2)c2ncc(C(=O)NC3(C(=O)NC4(c5cccc(C(=O)NCCC(N)=O)n5)CC4)CC3)n21` [compound 57] showed a pIC50 of 9.09.

Turning to `C[C@@]1(Cc2ccc(C#N)cc2)C(=O)N(c2cc(Cl)cc(Cl)c2)c2ncc(C(=O)NC3(C(=O)NC4(c5cc(C(=O)N6CCOCC6)ccn5)CC4)CC3)n21` [compound 58], the pIC50 was 9.15.

Compound `CN(C)C1CCN(C(=O)c2ccc(C3(NC(=O)C4(NC(=O)c5cnc6n5[C@](C)(Cc5ccc(C#N)cc5)C(=O)N6c5cc(Cl)cc(Cl)c5)CC4)CC3)nc2)C1` (stereo partly drawn) [compound 61] showed a pIC50 of 8.74.

`CN(C)CCNC(=O)c1ccnc(C2(NC(=O)C3(NC(=O)c4cnc5n4[C@](C)(Cc4ccc(C#N)cc4)C(=O)N5c4cc(Cl)cc(Cl)c4)CC3)CC2)c1` [compound 62]: the negative-log IC50 (pIC50) was 8.96.

Turning to `CN(C)CCNC(=O)c1cccc(C2(NC(=O)C3(NC(=O)c4cnc5n4[C@](C)(Cc4ccc(C#N)cc4)C(=O)N5c4cc(Cl)cc(Cl)c4)CC3)CC2)n1` [compound 63], the negative logarithm of the IC50 (pIC50) was 8.77.

Regarding `C[C@@]1(Cc2ccc(C#N)cc2)C(=O)N(c2cc(Cl)cc(Cl)c2)c2ncc(C(=O)NC3(C(=O)NC4(c5cc(C(=O)NCc6ccncc6)ccn5)CC4)CC3)n21` [compound 64], the pIC50 is 9.47.

Regarding `C[C@@H](NC(=O)c1ccc(C2(NC(=O)C3(NC(=O)c4cnc5n4[C@](C)(Cc4ccc(C#N)cc4)C(=O)N5c4cc(Cl)cc(Cl)c4)CC3)CC2)nc1)c1ccccc1` [compound 65], the negative logarithm of the IC50 (pIC50) is 8.68.

As for `C[C@@]1(Cc2ccc(C#N)cc2)C(=O)N(c2cc(Cl)cc(Cl)c2)c2ncc(C(=O)NC3(C(=O)NC4(c5ccc(C(=O)NC(CO)CO)cn5)CC4)CC3)n21` [compound 66], the pIC50 was 9.55.

In the case of `C[C@@]1(Cc2ccc(C#N)cc2)C(=O)N(c2cc(Cl)cc(Cl)c2)c2ncc(C(=O)NC3(C(=O)NC4(c5cccc(C(=O)N6CCC[C@@H]6C(N)=O)n5)CC4)CC3)n21` [compound 67], the pIC50 is 8.59.

In turn, `CC(=O)NCCNC(=O)c1cccc(C2(NC(=O)C3(NC(=O)c4cnc5n4[C@](C)(Cc4ccc(C#N)cc4)C(=O)N5c4cc(Cl)cc(Cl)c4)CC3)CC2)n1` [compound 68] gave a negative-log IC50 (pIC50) of 9.30.

Turning to `CC(C)(O)CNC(=O)c1ccnc(C2(NC(=O)C3(NC(=O)c4cnc5n4[C@](C)(Cc4ccc(C#N)cc4)C(=O)N5c4cc(Cl)cc(Cl)c4)CC3)CC2)c1` [compound 69], the negative logarithm of the IC50 (pIC50) was 9.33.

Regarding `C[C@@]1(Cc2ccc(C#N)cc2)C(=O)N(c2cc(Cl)cc(Cl)c2)c2ncc(C(=O)NC3(C(=O)NC4(c5ccc(C(=O)NC6CCC6)cn5)CC4)CC3)n21` [compound 71], the pIC50 is 9.13.

Consider `C[C@@]1(Cc2ccc(C#N)cc2)C(=O)N(c2cc(Cl)cc(Cl)c2)c2ncc(C(=O)NC3(C(=O)NC4(c5cc(C(=O)NCc6cccnc6)ccn5)CC4)CC3)n21` [compound 72], for which the pIC50 was 9.35.

In turn, `CC(O)CNC(=O)c1ccc(C2(NC(=O)C3(NC(=O)c4cnc5n4[C@](C)(Cc4ccc(C#N)cc4)C(=O)N5c4cc(Cl)cc(Cl)c4)CC3)CC2)nc1` (stereo partly drawn) [compound 73] gave a pIC50 of 9.43.

Take `CC(O)CNC(=O)c1cccc(C2(NC(=O)C3(NC(=O)c4cnc5n4[C@](C)(Cc4ccc(C#N)cc4)C(=O)N5c4cc(Cl)cc(Cl)c4)CC3)CC2)n1` (stereo partly drawn) [compound 74]: the negative-log IC50 (pIC50) was 8.85.

For `COCCNC(=O)c1cccc(C2(NC(=O)C3(NC(=O)c4cnc5n4[C@](C)(Cc4ccc(C#N)cc4)C(=O)N5c4cc(Cl)cc(Cl)c4)CC3)CC2)n1` [compound 75], the pIC50 is 8.66.

In turn, `C[C@@]1(Cc2ccc(C#N)cc2)C(=O)N(c2cc(Cl)cc(Cl)c2)c2ncc(C(=O)NC3(C(=O)NC4(c5cc(C(=O)NCc6ccco6)ccn5)CC4)CC3)n21` [compound 76] had a pIC50 of 9.10.

Take `C[C@@]1(Cc2ccc(C#N)cc2)C(=O)N(c2cc(Cl)cc(Cl)c2)c2ncc(C(=O)NC3(C(=O)NC4(c5ccc(C(=O)NCCN)cn5)CC4)CC3)n21` [compound 78]: the pIC50 is 9.17.

In turn, `C[C@@]1(Cc2ccc(C#N)cc2)C(=O)N(c2cc(Cl)cc(Cl)c2)c2ncc(C(=O)NC3(C(=O)NC4(c5cc(C(=O)NCc6ccccn6)ccn5)CC4)CC3)n21` [compound 79] had a pIC50 of 9.17.

In the case of `C[C@@]1(Cc2ccc(C#N)cc2)C(=O)N(c2cc(Cl)cc(Cl)c2)c2ncc(C(=O)NC3(C(=O)NC4(c5cc(C(=O)N6CCCC(CO)C6)ccn5)CC4)CC3)n21` (stereo partly drawn) [compound 80], the negative-log IC50 (pIC50) was 9.00.

Compound `C[C@@]1(Cc2ccc(C#N)cc2)C(=O)N(c2cc(Cl)cc(Cl)c2)c2ncc(C(=O)NC3(C(=O)NC4(c5ccc(C(=O)NCc6ccccc6)cn5)CC4)CC3)n21` [compound 81] showed a pIC50 of 8.82.

Regarding `C[C@@H](NC(=O)c1cccc(C2(NC(=O)C3(NC(=O)c4cnc5n4[C@](C)(Cc4ccc(C#N)cc4)C(=O)N5c4cc(Cl)cc(Cl)c4)CC3)CC2)n1)C(N)=O` [compound 83], the negative-log IC50 (pIC50) was 8.89.

Turning to `C[C@@]1(Cc2ccc(C#N)cc2)C(=O)N(c2cc(Cl)cc(Cl)c2)c2ncc(C(=O)NC3(C(=O)NC4(c5ccc(C(=O)NCCc6cccnc6)cn5)CC4)CC3)n21` [compound 84], the pIC50 is 9.28.

Regarding `C[C@@]1(Cc2ccc(C#N)cc2)C(=O)N(c2cc(Cl)cc(Cl)c2)c2ncc(C(=O)NC3(C(=O)NC4(c5ccc(C(=O)N6CCC(CO)CC6)cn5)CC4)CC3)n21` [compound 85], the pIC50 was 9.47.

`CC(C)(CO)NC(=O)c1ccc(C2(NC(=O)C3(NC(=O)c4cnc5n4[C@](C)(Cc4ccc(C#N)cc4)C(=O)N5c4cc(Cl)cc(Cl)c4)CC3)CC2)nc1` [compound 86]: the negative logarithm of the IC50 (pIC50) is 9.25.

`C[C@@]1(Cc2ccc(C#N)cc2)C(=O)N(c2cc(Cl)cc(Cl)c2)c2ncc(C(=O)NC3(C(=O)NC4(c5cc(C(=O)N6CC(O)C6)ccn5)CC4)CC3)n21` [compound 87] showed a negative-log IC50 (pIC50) of 9.01.
